According to patent publication US11884649B2, “IRE1α inhibitors and uses thereof” (The Regents of the University of California, priority 2020, dated 2024):

Legend:
[1] = system: INS-1 cells expressing IRE1α under Dox control; assay: RNA-Seq profiling of INS-1 cells conditionally overexpressing IRE1α; format: cell-based, rat; conditions: 20 μM, 5 ng/mL Dox
Experimental: Next, to systematically compare the transcriptomic effects of PAIR1 and KIRA9, we profiled INS-1 cells that conditionally overexpress IRE1α by RNA Seq. As above (FIGS. 4A-4K), IRE1α overexpression was induced with doxycycline (Dox) and cells were treated with either DMSO, or equivalent concentrations of PAIR1 or KIRA9. Total RNA was submitted for sequencing across entire transcripts. The dense coverage of this dataset enabled us to distinguish the endogenous rat IRE1α expression from the induced mouse IRE1α transgene; there was greater than 10-fold induction of transgene expression with doxycycline (FIG. 22). Dense coverage across the Xbp1 locus also enabled quantification of XBP1 splicing based on the reduced density of reads mapping to the noncanonical XBP1 intron. Consistent with measurements of XBP1 splicing by isoform-specific PCR (FIG. 4C), overexpression induced XBP1 splicing was preserved in both DMSO and PAIR1-treated cells, but blocked in KIRA9-treated cells at 4 hours (FIGS. 23A-23B).
RNA Isolation and Preparation
Isogenic IRE1α-overexpressing INS-1 cells were pre-treated with inhibitors for 1 h followed by addition of Dox 5 ng/mL for 4 h and 24 h as indicated. All conditions for RNAseq analysis were performed in three biological replicates. RNA was isolated from whole cells using Qiagen RNeasy with gDNA eliminator kit. RNA purity was determined using a NanaPhotometer spectrometer (IMPLEN, CA, USA). RNA integrity and quantitation were assessed using the RNA Nano 6000 Assay Kit of the Bioanalyzer 2100 system (Agilent Technologies, CA, USA).
Quantification of Gene Expression Level
HTSeq v0.6.1 was used to count the reads numbers mapped to each gene. And then FPKM of each gene was calculated based on the length of the gene and reads count mapped to this gene.
Differential Expression Analysis
Differential expression analysis of two conditions/groups (three biological replicates per condition) was performed using the DESeq R package (1.18.0). DESeq provide statistical routines for determining differential expression in digital gene expression data using a model based on the negative binomial distribution. The resulting P-values were adjusted using the Benjamini and Hochberg's approach for controlling the false discovery rate. Genes with an adjusted P-value<0.05 found by DESeq were assigned as differentially expressed.

[2] = system: RIDD (IRE1α-dependent mRNA decay); assay: RIDD (Blos1 mRNA) in ER-stressed INS-1 cells; format: cell-based, rat; conditions: 2 mM DTT, 20 μM compound
Experimental: RNA Isolation, Quantitative Real-Time PCR, and Primers
INS-1 or isogenic IRE1α-overexpressing INS-1 cells were plated onto Poly-D-Lysine coated tissue culture plate and grown for 48 hrs. Inhibitors or DMSO were added to the media and incubated for 1 hour at 37° C. with 5% CO2 prior to addition of ER stress agents or Dox as indicated. RNA was isolated from whole cells using either QIAGEN RNeasy Mini kits or Trizol (Invitrogen) and reverse transcribed as above to obtain total cDNA. Then, XBP-1 primers were used to amplify an XBP-1 amplicon spanning the 26 nt intron from the cDNA samples in a regular 3-step PCR. Thermal cycles were: 5 min at 95° C., 30 cycles of 30 s at 95° C., 30 s at 60° C., and 1 min at 72° C., followed by 72° C. for 15 min, and hold at 4° C. Primers used for XBP-1 mRNA splicing were as follows: sense primer XBP1.3 S (5′ […]-3′ (SEQ ID NO:2)) and antisense primer XBP1.2AS (5′-[…]-3′ (SEQ ID NO:3)). PCR fragments were then digested by PstI, resolved on 3% agarose gels, stained with EtBr and quantified by densitometry using ImageJ (NIH). For standard mRNA detection, generally […] total RNA was reverse transcribed using the QuantiTect Reverse Transcription Kit (QIAGEN). For qPCR, we used SYBR green (QIAGEN) and StepOnePlus Real-Time PCR System (Applied Biosystems). Thermal cycles were: 5 min at 95° C., 40 cycles of 15 sec at 95° C., 30 sec at 60° C. […]

Compound	TXNIP upregulation [1]	downregulation of RIDD genes [1]	global decrease of secretome transcripts [1]	upregulation of apoptosis genes [1]	XBP1 splicing (read coverage) ([1]; 4 hours)	XBP1 splicing (read coverage) ([1]; 24 hours)	RIDD (Blos1 mRNA) [2]
O=S(=O)(CC(F)(F)F)Nc1ccc(Oc2ncccc2-c2ccnc(N[C@H]3CCCNC3)n2)c2ccccc12 (stereo in doubt) [PAIR1, 2,2,2-trifluoro-N-(4-(3-(2-(piperidin-3-ylamino)pyrimidin-4-yl)pyridin-2-yloxy)naphthalen-1-yl)ethanesulfonamide]	blocked	antagonized	blocked	largely blunted	preserved	preserved	equivalently blunt RIDD
O=S(=O)(CCC(F)(F)F)Nc1ccc(Oc2ncccc2-c2ccnc(NC3CCCNC3)n2)c2ccccc12 (centres unmarked) [KIRA9, 3,3,3-trifluoro-N-(4-(3-(2-(piperidin-3-ylamino)pyrimidin-4-yl)pyridin-2-yloxy)naphthalen-1-yl)propane-1-sulfonamide]	blocked	antagonized	blocked	largely blunted	blocked	partially decreased	equivalently blunt RIDD
